In ChEMBL document CHEMBL1201862, “PubChem BioAssay data set” (2004):
Active and inactive are the calls of the source.

What was measured:
[1] = Trypanosoma cruzi growth suppression in host cells – NIH3T3 host cells, beta-gal luminescence, confirmation (AID 2044); format: functional, cell-based;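 also: intracellular parasites grown in NIH/3T3 mouse fibroblasts as host cells; luminescent beta-galactosidase reporter signal from transgenic T. cruzi replicating inside host cells; inhibitors lower the luminescence signal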
[2] = T. cruzi infection blockers in NIH3T3 cells – beta-gal luminescence, NIH3T3 host cells, confirmation (AID 2630); format: functional, cell-based; settings: Mus musculus
[3] = molecular target: Peroxisome proliferator-activated receptor gamma/Nuclear receptor coactivator 3 (Homo sapiens, UniProt P37231); test: (§1) TR-FRET dose response biochemical High Throughput Screening assay for agonists of the steroid receptor coactivator 3 (SRC-3) recruitment by the peroxisome proliferator-activated receptor gamma (PPAR gamma): non-selective agonists. [Related pubchem assays: 1301 (Confirmation screen.), 1048 (Primary screen.)]; format: functional
Sequence of Peroxisome proliferator-activated receptor gamma/Nuclear receptor coactivator 3 (P37231 whole entry): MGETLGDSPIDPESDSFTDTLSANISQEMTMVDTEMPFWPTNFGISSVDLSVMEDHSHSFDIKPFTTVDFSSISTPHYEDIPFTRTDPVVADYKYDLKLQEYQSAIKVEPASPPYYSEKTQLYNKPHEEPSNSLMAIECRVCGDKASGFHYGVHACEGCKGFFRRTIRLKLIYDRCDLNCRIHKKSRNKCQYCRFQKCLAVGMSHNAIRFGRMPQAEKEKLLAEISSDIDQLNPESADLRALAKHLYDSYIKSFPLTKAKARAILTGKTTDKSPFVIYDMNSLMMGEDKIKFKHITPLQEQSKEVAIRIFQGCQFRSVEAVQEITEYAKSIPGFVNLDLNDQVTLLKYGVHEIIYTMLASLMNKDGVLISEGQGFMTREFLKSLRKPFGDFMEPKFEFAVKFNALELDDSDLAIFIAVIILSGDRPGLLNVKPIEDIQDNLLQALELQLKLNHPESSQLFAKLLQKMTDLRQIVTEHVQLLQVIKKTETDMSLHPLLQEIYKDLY
Sequence of Peroxisome proliferator-activated receptor gamma/Nuclear receptor coactivator 3 (Q9Y6Q9 whole entry, further chain): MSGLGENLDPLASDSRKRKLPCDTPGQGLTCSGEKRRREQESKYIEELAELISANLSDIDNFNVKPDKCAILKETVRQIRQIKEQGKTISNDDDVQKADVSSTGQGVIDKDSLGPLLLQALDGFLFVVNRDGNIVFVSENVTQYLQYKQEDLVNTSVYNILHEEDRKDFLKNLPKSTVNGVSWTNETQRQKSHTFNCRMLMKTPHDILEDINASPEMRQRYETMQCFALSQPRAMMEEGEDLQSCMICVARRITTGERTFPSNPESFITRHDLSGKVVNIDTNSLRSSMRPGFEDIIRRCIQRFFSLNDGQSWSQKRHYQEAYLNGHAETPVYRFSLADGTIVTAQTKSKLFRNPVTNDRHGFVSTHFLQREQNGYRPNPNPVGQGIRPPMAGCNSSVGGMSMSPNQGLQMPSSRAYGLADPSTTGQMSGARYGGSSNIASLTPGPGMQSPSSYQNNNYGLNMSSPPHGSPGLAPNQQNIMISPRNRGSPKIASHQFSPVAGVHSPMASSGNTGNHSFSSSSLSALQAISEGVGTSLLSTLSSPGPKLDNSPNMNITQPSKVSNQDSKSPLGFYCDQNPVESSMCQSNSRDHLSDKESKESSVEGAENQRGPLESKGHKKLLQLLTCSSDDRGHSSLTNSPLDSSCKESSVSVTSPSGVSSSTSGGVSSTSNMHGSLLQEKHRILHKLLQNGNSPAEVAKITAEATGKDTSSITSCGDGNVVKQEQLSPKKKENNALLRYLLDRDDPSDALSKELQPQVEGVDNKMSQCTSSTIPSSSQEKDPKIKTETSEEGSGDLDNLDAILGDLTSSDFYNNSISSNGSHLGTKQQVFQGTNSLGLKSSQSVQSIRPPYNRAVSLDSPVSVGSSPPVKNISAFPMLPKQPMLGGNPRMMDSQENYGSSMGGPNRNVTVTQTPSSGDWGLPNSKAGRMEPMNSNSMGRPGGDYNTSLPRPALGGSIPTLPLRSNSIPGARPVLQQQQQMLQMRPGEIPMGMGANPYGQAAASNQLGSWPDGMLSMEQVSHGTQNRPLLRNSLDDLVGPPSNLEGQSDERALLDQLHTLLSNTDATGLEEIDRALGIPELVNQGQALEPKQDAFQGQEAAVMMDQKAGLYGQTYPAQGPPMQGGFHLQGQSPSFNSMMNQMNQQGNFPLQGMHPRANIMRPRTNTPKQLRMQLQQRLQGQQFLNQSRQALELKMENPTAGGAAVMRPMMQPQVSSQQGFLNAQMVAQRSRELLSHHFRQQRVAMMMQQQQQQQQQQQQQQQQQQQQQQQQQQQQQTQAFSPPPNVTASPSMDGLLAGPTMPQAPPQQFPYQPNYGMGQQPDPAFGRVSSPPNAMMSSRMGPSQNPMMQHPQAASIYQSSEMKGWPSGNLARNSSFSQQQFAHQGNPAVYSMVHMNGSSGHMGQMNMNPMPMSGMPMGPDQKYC

[4] = molecular target: Peroxisome proliferator-activated receptor gamma/Nuclear receptor coactivator 1 (Homo sapiens, UniProt P37231); test: as §1, with “1 (SRC-1)” for “3 (SRC-3)”, “assays (depositor defined):AID1300, AID1808, AID504735, AID631]” for “assays: 1301 (Confirmation screen.), 1048 (Primary screen.)]”; format: protein assay
[5] = Luminescence Cell-Based/Microorganism Confirmation at Dose of Inhibitors of Trypanosoma cruzi Infection. [Related pubchem assays: 1885, 1968 ]; format: functional
[6] = Luminescence Cell-Based Secondary HTS screen to identify cytotoxic compounds of NIH3T3 cells. [Related pubchem assays: 1885, 1968 ]; format: functional
[7] = molecular target: Peroxisome proliferator-activated receptor gamma/Nuclear receptor coactivator 2 (Homo sapiens, UniProt P37231); test: TR-FRET dose response biochemical High Throughput Screening assay for agonists of the steroid receptor coactivator 2 (SRC-2) recruitment by the peroxisome proliferator-activated receptor gamma (PPAR gamma): non-selective agonists. [Related pubchem assays: 1297, 1032 ]; format: functional
[8] = NIH3T3 cell viability loss – ATP luminescence, mouse fibroblasts, counter-screen, dose response (AID 2010); format: functional, cell-based;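 also: cells exposed to compound for about 90 hours before reading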
[9] = molecular target: Neuropeptide Y receptor type 2 (Homo sapiens, UniProt P49146); test: IC50 for human NPY-Y2 blockade – cell-based, counter-screen for NPY-Y1 antagonist project, dose response (AID 1278); format: functional
Sequence of Neuropeptide Y receptor type 2 (P49146 whole entry): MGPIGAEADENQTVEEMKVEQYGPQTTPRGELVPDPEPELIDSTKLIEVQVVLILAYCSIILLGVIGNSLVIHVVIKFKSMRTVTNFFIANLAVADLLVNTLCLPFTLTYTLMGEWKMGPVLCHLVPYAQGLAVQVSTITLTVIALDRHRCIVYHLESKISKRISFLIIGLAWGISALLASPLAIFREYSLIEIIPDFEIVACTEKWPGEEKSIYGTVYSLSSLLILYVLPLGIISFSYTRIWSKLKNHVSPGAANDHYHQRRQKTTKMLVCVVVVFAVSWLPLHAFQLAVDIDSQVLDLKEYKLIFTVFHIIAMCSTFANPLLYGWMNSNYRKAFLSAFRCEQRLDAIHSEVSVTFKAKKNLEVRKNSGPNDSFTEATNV

[10] = molecular target: Neuropeptide Y receptor type 1 (Homo sapiens, UniProt P25929); test: IC50 of human NPY-Y1 blockers – cell-based, dose response (AID 1277); format: functional
Sequence of Neuropeptide Y receptor type 1 (P25929 whole entry): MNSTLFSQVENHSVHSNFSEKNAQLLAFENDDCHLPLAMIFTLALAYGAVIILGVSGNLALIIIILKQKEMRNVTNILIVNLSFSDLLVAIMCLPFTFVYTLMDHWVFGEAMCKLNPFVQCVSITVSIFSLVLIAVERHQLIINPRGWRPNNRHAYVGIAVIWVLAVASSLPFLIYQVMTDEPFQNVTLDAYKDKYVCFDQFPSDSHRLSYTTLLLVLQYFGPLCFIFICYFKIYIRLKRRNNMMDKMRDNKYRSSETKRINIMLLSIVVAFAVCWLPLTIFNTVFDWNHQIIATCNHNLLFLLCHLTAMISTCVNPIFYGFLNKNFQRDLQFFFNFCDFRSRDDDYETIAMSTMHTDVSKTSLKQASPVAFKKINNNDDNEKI

[11] = molecular target: G2/mitotic-specific cyclin-B1 (Homo sapiens, UniProt P14635); test: Counterscreen assay for inhibitors of Wee1 degradation: dose response cell-based assay to identify inhibitors of cyclin B degradation. [Related pubchem assays: 1410, 1321 ]; format: functional
Sequence of G2/mitotic-specific cyclin-B1 (P14635 whole entry): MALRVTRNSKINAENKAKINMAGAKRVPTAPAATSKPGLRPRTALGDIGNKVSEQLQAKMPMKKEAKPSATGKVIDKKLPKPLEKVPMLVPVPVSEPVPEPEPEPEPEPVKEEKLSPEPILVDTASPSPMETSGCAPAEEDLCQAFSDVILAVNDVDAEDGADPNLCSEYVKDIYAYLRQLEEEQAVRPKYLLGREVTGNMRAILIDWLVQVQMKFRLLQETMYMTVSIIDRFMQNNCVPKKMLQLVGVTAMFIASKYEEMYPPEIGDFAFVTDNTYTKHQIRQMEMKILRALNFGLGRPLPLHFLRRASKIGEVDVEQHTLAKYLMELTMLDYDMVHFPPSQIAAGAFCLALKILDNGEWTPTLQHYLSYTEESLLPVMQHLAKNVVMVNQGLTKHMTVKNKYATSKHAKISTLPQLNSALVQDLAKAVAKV

Wee1-like protein kinase = Wee1-like protein kinase (Homo sapiens, UniProt P30291); test: Dose Response Cell-based Assay for Inhibitors of Wee1 Degradation. [Related pubchem assays: 1410, 1321 ]; format: functional
Sequence of Wee1-like protein kinase (P30291 whole entry): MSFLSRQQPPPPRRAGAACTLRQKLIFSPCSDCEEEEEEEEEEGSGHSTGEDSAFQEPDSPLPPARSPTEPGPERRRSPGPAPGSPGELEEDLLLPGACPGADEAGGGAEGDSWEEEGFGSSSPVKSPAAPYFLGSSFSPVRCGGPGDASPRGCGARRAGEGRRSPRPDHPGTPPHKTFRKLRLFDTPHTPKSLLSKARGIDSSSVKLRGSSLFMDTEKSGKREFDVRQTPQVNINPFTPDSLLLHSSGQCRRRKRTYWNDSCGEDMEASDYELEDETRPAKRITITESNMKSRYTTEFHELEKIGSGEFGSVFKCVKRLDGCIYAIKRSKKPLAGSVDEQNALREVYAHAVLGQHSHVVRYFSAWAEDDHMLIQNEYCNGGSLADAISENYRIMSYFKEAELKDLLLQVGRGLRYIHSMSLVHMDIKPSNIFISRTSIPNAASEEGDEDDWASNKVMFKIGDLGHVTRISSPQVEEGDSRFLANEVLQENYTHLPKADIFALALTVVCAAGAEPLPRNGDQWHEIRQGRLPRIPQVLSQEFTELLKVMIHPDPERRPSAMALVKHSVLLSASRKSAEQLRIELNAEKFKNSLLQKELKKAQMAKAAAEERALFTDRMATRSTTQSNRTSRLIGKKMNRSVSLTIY

[12] = Luminescence Cell-Based Dose Retest to Confirm Inhibitors of Cancer Stem Cells. [Related pubchem assays (depositor defined):AID2717, AID2721]; format: functional; settings: Homo sapiens
[13] = antiviral protection against BTV-induced cell death – arbovirus, BSR cells, confirmation (AID 1250); format: functional;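 also: protection from viral cytopathic effect measured as cell viability by ATP luminescence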
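For AC50 in this document: cells exposed to compound for roughly 70 hours or longer before luminescence read.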

SMILES: COc1cc(C(=O)NCCC(C)C)ccc1OCc1ccc(Cl)cc1Cl
- EC50 [1]: 1.34 µM (active)
- EC50 [2]: 4.43 µM (active)
- EC50 [3]: > 79.4 µM (not active)
- EC50 [4]: > 79.4 µM (inactive)
- EC50 [5]: 4.43 µM (inconclusive)
- EC50 [6]: > 195 µM (not active)
- EC50 [7]: > 79.4 µM (not active)
- EC50 [8]: > 30 µM (not active)

SMILES: CC(C)(C)NC(=O)c1oc2ccccc2c1COc1ccccc1
- IC50 [9]: > 35 µM (not active)
- IC50 [10]: 18.9 µM (not active)

SMILES: O=C(COc1ccc(C(=O)c2ccc(F)cc2)cc1)NCc1ccc(F)cc1
- EC50 [11]: > 49.7 µM (not active)
- EC50 (Wee1-like protein kinase): > 49.7 µM (not active)

SMILES: CC(C)(Oc1ccc(Cl)cc1)C(=O)NC1=NN(c2ccccc2)C(=O)C1
- AC50 [12]: 3.91 µM (active)
- IC50 [13]: 31.8 µM (active)
